In patent US8680159B2, “Bradykinin 1 receptor modulating compounds” (Gruenenthal GmbH, priority 2010, dated 2014):
Read-outs that look alike come from different tables or passages of the source.

Experiments:
[1] = target: T1, human B1R receptor (CHO K1 cells stably transfected with the human B1R gene) (Homo sapiens, UniProt P46663); assay: Functional study on the bradykinin receptor 1 (B1R), Ca2+ fluorescence (Fluo-4) FLIPR/Novostar assay, hB1R cells; format: cell-based
T1 construct: expressed in transfected cells; host or cells: CHO K1 cells (Chinese hamster ovary), stably transfected
T1 sequence (P46663 1-353): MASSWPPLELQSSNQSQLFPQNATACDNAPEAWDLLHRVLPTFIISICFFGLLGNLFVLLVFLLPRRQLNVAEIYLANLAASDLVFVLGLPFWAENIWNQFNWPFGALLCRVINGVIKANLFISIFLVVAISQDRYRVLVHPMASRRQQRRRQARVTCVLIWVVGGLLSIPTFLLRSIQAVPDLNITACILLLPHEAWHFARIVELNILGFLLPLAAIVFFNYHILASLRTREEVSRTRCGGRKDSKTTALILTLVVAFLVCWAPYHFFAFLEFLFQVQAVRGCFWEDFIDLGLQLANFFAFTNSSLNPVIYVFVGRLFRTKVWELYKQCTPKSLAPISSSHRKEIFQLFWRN
In short: (§1)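 Stably transfected CHO K1 cells carrying human or rat B1R were Fluo-4 loaded and Ca2+ fluorescence read by FLIPR or Novostar. Compounds were added first at 10 μM for % activation, then the EC80 agonist was applied after 6-20 min (human: Lys-Des-Arg9-bradykinin; rat: Des-Arg9-bradykinin). % inhibition is relative to maximum achievable inhibition, and IC50 comes from concentration series.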

[2] = target: T2, B1R receptor of the rat (CHO K1 cells stably transfected with the B1R gene of the rat) (Rattus norvegicus, UniProt P97583); assay: Functional study on the bradykinin receptor 1 (B1R), Ca2+ fluorescence (Fluo-4) FLIPR/Novostar assay, rB1R cells; format: cell-based; details: for inhibition at 10 µM: CHO-K1, 10 μM
T2 construct: expressed in transfected cells; host or cells: CHO K1 cells (Chinese hamster ovary), stably transfected
T2 sequence (P97583 1-337): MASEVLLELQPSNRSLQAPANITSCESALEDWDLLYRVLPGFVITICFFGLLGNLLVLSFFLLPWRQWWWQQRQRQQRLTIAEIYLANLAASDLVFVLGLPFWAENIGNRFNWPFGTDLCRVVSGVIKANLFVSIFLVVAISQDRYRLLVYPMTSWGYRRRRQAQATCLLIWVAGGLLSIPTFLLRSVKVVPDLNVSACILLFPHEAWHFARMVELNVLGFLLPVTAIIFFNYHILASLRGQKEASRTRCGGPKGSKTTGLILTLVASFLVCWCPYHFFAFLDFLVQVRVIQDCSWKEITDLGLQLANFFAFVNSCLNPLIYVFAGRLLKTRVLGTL
In short: as §1

[3] = CHO-K1, read-out: % Inhibition (h-B1R) at 10 μM
[4] = read-out: % Inhibition (r-B1R) at 10 μM
[5] = CHO-K1, read-out: % inhibition (human B1R) at 10 μM
[6] = read-out: % inhibition (rat B1R) at 10 μM

Compound | inhibition at 10 µM [1, 5] | inhibition at 10 µM [2, 6] | other results
CN(C(=O)c1ccc2c(c1)CCC2NC(=O)c1ccccc1Cl)C1CCN(c2ccncc2)CC1 (centres unmarked) [CC_H-68, 1-[(2-Chloro-benzoyl)amino]-N-methyl-N-(1-pyridin-4-yl-piperidin-4-yl)-2,3-dihydro-1H-indene-5-carboxylic acid amide] |  |  | inhibition at 10 µM [1, 3]: 96%; inhibition at 10 µM [2, 4]: 87%
CN(C(=O)c1ccc2c(c1)C(N(C)C(=O)C1CCCCC1)CC2)C1CCN(c2ccncc2)CC1 (centres unmarked) [CC_H-69, 3-(Cyclohexanecarbonyl-methyl-amino)-N-methyl-N-(1-pyridin-4-yl-piperidin-4-yl)-2,3-dihydro-1H-indene-5-carboxylic acid amide] |  |  | inhibition at 10 µM [1, 3]: 99%; % Inhibition (r-B1R) at 10 μM ([2]; 10 μM): 104%
CN(C(=O)c1ccc2c(c1)C(N(C)C(=O)CCC1CCCC1)CC2)C1CCN(c2ccncc2)CC1 (centres unmarked) [CC_H-70, 3-(3-Cyclopentyl-propanoyl-methyl-amino)-N-methyl-N-(1-pyridin-4-yl-piperidin-4-yl)-2,3-dihydro-1H-indene-5-carboxylic acid amide] |  |  | inhibition at 10 µM [1, 3]: 100%; inhibition at 10 µM [2, 4]: 103%
O=C(NCCC1CCN(c2ccncc2)CC1)c1ccc2c(c1)C(NC(=O)c1ccccc1Cl)CC2 (centres unmarked) [Example H-01, 3-[(2-Chloro-benzoyl)amino]-N-[2-(1-pyridin-4-yl-piperidin-4-yl)-ethyl]-2,3-dihydro-1H-indene-5-carboxylic acid amide] | 100% | 102% | 
O=C(NCC1CCN(c2ccncc2)CC1)c1ccc2c(c1)[C@H](NC(=O)c1ccccc1Cl)CC2 [Example H-03, (3R)-3-[(2-Chloro-benzoyl)amino]-N-[(1-pyridin-4-yl-piperidin-4-yl)-methyl]-2,3-dihydro-1H-indene-5-carboxylic acid amide] | 15% | 108% | 
O=C(NC1CCN(c2ccc(C(F)(F)F)cn2)C1)c1ccc2c(c1)[C@H](NC(=O)c1ccccc1Cl)CC2 (stereo partly drawn) [Example H-04, (3R)-3-[(2-Chloro-benzoyl)amino]-N-[1-[5-(trifluoromethyl)-pyridin-2-yl]-pyrrolidin-3-yl]-2,3-dihydro-1H-indene-5-carboxylic acid amide] | 21% | 47% | 
CN(C(=O)c1ccc2c(c1)[C@H](NC(=O)c1ccccc1Cl)CC2)C1CCN(c2ccncc2)CC1 [Example H-06, (3R)-3-[(2-Chloro-benzoyl)amino]-N-methyl-N-(1-pyridin-4-yl-piperidin-4-yl)-2,3-dihydro-1H-indene-5-carboxylic acid amide] | 100% | 102% | 
O=C(NC1CCN(c2ccncc2)CC1)c1ccc2c(c1)[C@H](NC(=O)c1ccccc1Cl)CC2 [Example H-07, (3R)-3-[(2-Chloro-benzoyl)amino]-N-(1-pyridin-4-yl-piperidin-4-yl)-2,3-dihydro-1H-indene-5-carboxylic acid amide] | 43% | 96% | 
CN1CCN(C2CCC(NC(=O)c3ccc4c(c3)[C@H](NC(=O)c3ccccc3Cl)CC4)C(C)(C)C2)CC1 (stereo partly drawn) [Example H-14, (3R)-3-[(2-Chloro-benzoyl)amino]-N-[2,2-dimethyl-4-(4-methyl-piperazin-l-yl)-cyclohexyl]-2,3-dihydro-1H-indene-5-carboxylic acid amide] |  |  | % inhibition (human B1R) at 10 μM [1]: 64%; % inhibition (rat B1R) at 10 μM ([2]; 10 μM): 76%

Now from value to compound, other results behind:

inhibition at 10 µM [1, 5] | inhibition at 10 µM [2, 6] | Compound | other results
38% | 83% | O=C(N[C@H]1CCN(C2CCN(C3CC3)CC2)C1)c1ccc2c(c1)[C@H](NC(=O)c1ccccc1Cl)CC2 [Example H-09, (3R)-3-[(2-Chloro-benzoyl)amino]-N-[(3S)-1-(1-cyclopropyl-piperidin-4-yl)-pyrrolidin-3-yl]-2,3-dihydro-1H-indene-5-carboxylic acid amide] | 
18% | 97% | O=C(NCC1CCCN(c2ccncc2)C1)c1ccc2c(c1)[C@H](NC(=O)c1ccccc1Cl)CC2 (stereo partly drawn) [Example H-10, (3R)-3-[(2-Chloro-benzoyl)amino]-N-[(1-pyridin-4-yl-piperidin-3-yl)-methyl]-2,3-dihydro-1H-indene-5-carboxylic acid amide] | 
99% | 49% | CN(C(=O)c1ccc2c(c1)CC[C@H]2N1Cc2cccc(Cl)c2C1=O)C1CCN(c2ccncc2)CC1 [Example H-11, (1R)-1-(4-Chloro-3-oxo-1,2-dihydro-isoindol-2-yl)-N-methyl-N-(1-pyridin-4-yl-piperidin-4-yl)-2,3-dihydro-1H-indene-5-carboxylic acid amide] | 
100% | 100% | CN(C(=O)c1ccc2c(c1)[C@H](N1Cc3cccc(Cl)c3C1=O)CC2)C1CCN(c2ccncc2)CC1 [Example H-12, (3R)-3-(4-Chloro-3-oxo-1,2-dihydro-isoindol-2-yl)-N-methyl-N-(1-pyridin-4-yl-piperidin-4-yl)-2,3-dihydro-1H-indene-5-carboxylic acid amide] | 
100% | 99% | O=C(NCCC1CCN(c2ccncc2)CC1)c1ccc2c(c1)[C@H](NC(=O)c1ccccc1Cl)CC2 [Example H-15, (3R)-3-[(2-Chloro-benzoyl)amino]-N-[2-(1-pyridin-4-yl-piperidin-4-yl)-ethyl]-2,3-dihydro-1H-indene-5-carboxylic acid amide] | 
100% | 92% | CN(C(=O)c1ccc2c(c1)CC[C@H]2NS(=O)(=O)c1ccccc1Cl)C1CCN(c2ccncc2)CC1 [Example H-16, (1R)-1-[[(2-Chlorophenyl)sulfonyl]amino]-N-methyl-N-(1-pyridin-4-yl-piperidin-4-yl)-2,3-dihydro-1H-indene-5-carboxylic acid amide] | 
100% | 77% | CN(C(=O)c1ccc2c(c1)CC[C@H]2NC(=O)c1ccccc1Cl)C1CCN(c2ccncc2)CC1 [Example H-17, (1R)-1-[(2-Chloro-benzoyl)amino]-N-methyl-N-(1-pyridin-4-yl-piperidin-4-yl)-2,3-dihydro-1H-indene-5-carboxylic acid amide] | 
100% | 102% | CN(C(=O)c1ccc2c(c1)[C@H](NC(=O)C1CCC1)CC2)C1CCN(c2ccncc2)CC1 [Example H-18, (3R)-3-(Cyclobutanecarbonylamino)-N-methyl-N-(1-pyridin-4-yl-piperidin-4-yl)-2,3-dihydro-1H-indene-5-carboxylic acid amide] | 
98% | 103% | CN(C(=O)c1ccc2c(c1)[C@H](NC(=O)C(C)(C)C)CC2)C1CCN(c2ccncc2)CC1 [Example H-19, (3R)-3-(2,2-Dimethyl-propanoylamino)-N-methyl-N-(1-pyridin-4-yl-piperidin-4-yl)-2,3-dihydro-1H-indene-5-carboxylic acid amide] | 
100% | 103% | CN(C(=O)c1ccc2c(c1)[C@H](NC(=O)c1ccccc1Cl)CCO2)C1CCN(c2ccncc2)CC1 [Example H-20, (4R)-4-[(2-Chloro-benzoyl)amino]-N-methyl-N-(1-pyridin-4-yl-piperidin-4-yl)-3,4-dihydro-2H-chromene-6-carboxylic acid amide] | 
99% | 105% | CN(C(=O)c1ccc2c(c1)[C@@H](NC(=O)c1ccccc1Cl)CC2)C1CCN(c2ccncc2)CC1 [Example H-21, (3S)-3-[(2-Chloro-benzoyl)amino]-N-methyl-N-(1-pyridin-4-yl-piperidin-4-yl)-2,3-dihydro-1H-indene-5-carboxylic acid amide] | 
100% | 87% | CN(C(=O)c1ccc2c(c1)[C@H](NC(=O)c1cnn3cccnc13)CC2)C1CCN(c2ccncc2)CC1 [Example H-22, N-[(1R)-6-[Methyl-(1-pyridin-4-yl-piperidin-4-yl)-carbamoyl]-2,3-dihydro-1H-indene-1-yl]-pyrazolo[1,5-a]pyrimidine-3-carboxylic acid amide] | 
97% | 93% | CN(C(=O)c1ccc2c(c1)[C@H](NC(=O)c1ccccc1Cl)CC2)C1CCN(c2ccccn2)CC1 [Example H-23, (3R)-3-[(2-Chloro-benzoyl)amino]-N-methyl-N-(1-pyridin-2-yl-piperidin-4-yl)-2,3-dihydro-1H-indene-5-carboxylic acid amide] | 
